What was measured:
Assay in all cases: NCI one-dose screen
Type in all cases: cell-based
MDA-MB-231/ATCC = details: Homo sapiens, read-out: Growth Percent
How it was run: (§1)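 The NCI ran this in vitro antitumor screen on 59 human cancer lines from nine tissue subpanels, with each compound applied once at 10 µM. Growth percent is reported.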

SK-MEL-2 = details: Homo sapiens; SK-MEL-2, 10 µM; read-out: Growth Percent
How it was run: as §1

A498 = details: Homo sapiens; A498, 10 µM; read-out: Growth Percent
How it was run: as §1

NCI-H23 = details: Homo sapiens; NCI-H23, 10 µM; read-out: Growth Percent
How it was run: as §1

HS 578T = details: Homo sapiens, read-out: Growth Percent
How it was run: as §1

HCT-15 = details: Homo sapiens; HCT-15, 10 µM; read-out: Growth Percent
How it was run: as §1

COLO 205 = details: Homo sapiens; COLO 205, 10 µM; read-out: Growth Percent
How it was run: as §1

OVCAR-5 = details: Homo sapiens; OVCAR-5, 10 µM; read-out: Growth Percent
How it was run: as §1

K-562 = details: Homo sapiens, K562; K-562, 10 µM; read-out: Growth Percent
How it was run: as §1

M14 = details: Homo sapiens; M14, 10 µM; read-out: Growth Percent
How it was run: as §1

CAKI-1 = details: Homo sapiens; CAKI-1, 10 µM; read-out: Growth Percent
How it was run: as §1

EKVX = details: Homo sapiens, read-out: Growth Percent
How it was run: as §1

BT-549 = details: Homo sapiens; BT-549, 10 µM; read-out: Growth Percent
How it was run: as §1

UO-31 = details: Homo sapiens; UO-31, 10 µM; read-out: Growth Percent
How it was run: as §1

SF-268 = details: Homo sapiens; SF-268, 10 µM; read-out: Growth Percent
How it was run: as §1

NCI/ADR-RES = details: Homo sapiens, read-out: Growth Percent
How it was run: as §1

MOLT-4 = details: Homo sapiens; MOLT-4, 10 µM; read-out: Growth Percent
How it was run: as §1

T-47D = details: Homo sapiens, T47D, read-out: Growth Percent
How it was run: as §1

U251 = details: Homo sapiens, U-251; U251, 10 µM; read-out: Growth Percent
How it was run: as §1

SF-539 = details: Homo sapiens; SF-539, 10 µM; read-out: Growth Percent
How it was run: as §1

KM12 = details: Homo sapiens; KM12, 10 µM; read-out: Growth Percent
How it was run: as §1

HL-60(TB) = details: Homo sapiens, read-out: Growth Percent
HOP-92 = details: Homo sapiens; HOP-92, 10 µM; read-out: Growth Percent
How it was run: as §1

OVCAR-3 = details: Homo sapiens; OVCAR-3, 10 µM; read-out: Growth Percent
How it was run: as §1

MCF7 = details: Homo sapiens; MCF7, 10 µM; read-out: Growth Percent
How it was run: as §1

SF-295 = details: Homo sapiens; SF-295, 10 µM; read-out: Growth Percent
How it was run: as §1

MALME-3M = details: Homo sapiens, read-out: Growth Percent
How it was run: as §1

SK-MEL-28 = details: Homo sapiens; SK-MEL-28, 10 µM; read-out: Growth Percent
How it was run: as §1

For `CN(C)c1ccc(/C=C/C(=O)c2ccc(-n3cc(CN4CCN(c5cc6c(cc5F)c(=O)c(C(=O)O)cn6C5CC5)CC4)nn3)cc2)cc1` [Compound 4h, (E)-1-cyclopropyl-7–(4-((1–(4-(3-(4-(dimethylamino)phenyl)acryloyl)phenyl)-1H-1,2,3-triazol-4-yl)methyl)piperazin-1-yl)-6-fluoro-4-oxo-1,4-dihydroquinoline-3-carboxylic acid], the activity at 10 µM (MDA-MB-231/ATCC) was 75.5%, the activity at 10 µM (SK-MEL-2) was 95.5% and the activity at 10 µM (A498) was 64.5%. For the same compound, the activity at 10 µM (NCI-H23) was 81.5%, the activity at 10 µM (HS 578T) was 80.5% and the activity at 10 µM (HCT-15) was 97.6%. For the same compound, the activity at 10 µM (COLO 205) was 101%, the activity at 10 µM (OVCAR-5) was 109% and the activity at 10 µM (K-562) was 86%. It also gave an activity at 10 µM (M14) of 87.4%, an activity at 10 µM (CAKI-1) of 69.8% and an activity at 10 µM (EKVX) of 96%. It also gave an activity at 10 µM (BT-549) of 73.7%, an activity at 10 µM (UO-31) of 61.9% and an activity at 10 µM (SF-268) of 71.5%. For the same compound, the activity at 10 µM (NCI/ADR-RES) was 103%, the activity at 10 µM (MOLT-4) was 86% and the activity at 10 µM (T-47D) was 86.7%. It also gave an activity at 10 µM (U251) of 73%, an activity at 10 µM (SF-539) of 73.6% and an activity at 10 µM (KM12) of 84.1%. The activity at 10 µM (HL-60(TB)) was 98.8%, the activity at 10 µM (HOP-92) was 76.2% and the activity at 10 µM (OVCAR-3) was 96%. The activity at 10 µM (MCF7) was 59.2%, the activity at 10 µM (SF-295) was 86.9% and the activity at 10 µM (MALME-3M) was 96%. For the same compound, the activity at 10 µM (SK-MEL-28) was 100%.

With `Cc1ccc(/C=C/C(=O)c2ccc(-n3cc(CN4CCN(c5cc6c(cc5F)c(=O)c(C(=O)O)cn6C5CC5)CC4)nn3)cc2)cc1` [Compound 4f, (E)-1-cyclopropyl-6-fluoro-4-oxo-7-(4-((1-(4-(3-(p-tolyl)acryloyl)phenyl)-1H-1,2,3-triazol-4-yl)methyl)piperazin-1-yl)-1,4-dihydroquinoline-3-carboxylic acid] the activity at 10 µM (MDA-MB-231/ATCC) was 80.1%, the activity at 10 µM (SK-MEL-2) was 97.2% and the activity at 10 µM (A498) was 57.4%. It also gave an activity at 10 µM (NCI-H23) of 85.4%, an activity at 10 µM (HS 578T) of 83.6% and an activity at 10 µM (HCT-15) of 95%. For the same compound, the activity at 10 µM (COLO 205) was 107%, the activity at 10 µM (OVCAR-5) was 99.5% and the activity at 10 µM (K-562) was 51.5%. The activity at 10 µM (M14) was 87%, the activity at 10 µM (CAKI-1) was 64.4% and the activity at 10 µM (EKVX) was 90.7%. The activity at 10 µM (BT-549) was 81.3%, the activity at 10 µM (UO-31) was 65.7% and the activity at 10 µM (SF-268) was 72.6%. For the same compound, the activity at 10 µM (NCI/ADR-RES) was 102%, the activity at 10 µM (MOLT-4) was 67.7% and the activity at 10 µM (T-47D) was 80%. The activity at 10 µM (U251) was 71.2%, the activity at 10 µM (SF-539) was 83% and the activity at 10 µM (KM12) was 88.8%. For the same compound, the activity at 10 µM (HL-60(TB)) was 94.3%, the activity at 10 µM (HOP-92) was 84.6% and the activity at 10 µM (OVCAR-3) was 95.9%. It also gave an activity at 10 µM (MCF7) of 64.8%, an activity at 10 µM (SF-295) of 87.6% and an activity at 10 µM (MALME-3M) of 102%. It also gave an activity at 10 µM (SK-MEL-28) of 107%.

For `O=C(/C=C/c1ccc(Br)cc1)c1ccc(-n2cc(CN3CCN(c4cc5c(cc4F)c(=O)c(C(=O)O)cn5C4CC4)CC3)nn2)cc1` [Compound 4d, (E)-7-(4-((1-(4-(3-(4-bromophenyl)acryloyl)phenyl)-1H-1,2,3-triazol-4-yl)methyl)piperazin-1-yl)-1-cyclopropyl-6-fluoro-4-oxo-1,4-dihydroquinoline-3-carboxylic acid], the activity at 10 µM (MDA-MB-231/ATCC) was 66.4%, the activity at 10 µM (SK-MEL-2) was 102% and the activity at 10 µM (A498) was 34.9%. It also gave an activity at 10 µM (NCI-H23) of 77.6%, an activity at 10 µM (HS 578T) of 71.2% and an activity at 10 µM (HCT-15) of 90.6%. It also gave an activity at 10 µM (COLO 205) of 112%, an activity at 10 µM (OVCAR-5) of 92.7% and an activity at 10 µM (K-562) of 60.7%. It also gave an activity at 10 µM (M14) of 88.1%, an activity at 10 µM (CAKI-1) of 68.7% and an activity at 10 µM (EKVX) of 80.8%. The activity at 10 µM (BT-549) was 92.5%, the activity at 10 µM (UO-31) was 65.4% and the activity at 10 µM (SF-268) was 77.2%. For the same compound, the activity at 10 µM (NCI/ADR-RES) was 85.6%, the activity at 10 µM (MOLT-4) was 80.4% and the activity at 10 µM (T-47D) was 101%. For the same compound, the activity at 10 µM (U251) was 68.4%, the activity at 10 µM (SF-539) was 82.5% and the activity at 10 µM (KM12) was 87.1%. For the same compound, the activity at 10 µM (HL-60(TB)) was 98.8%, the activity at 10 µM (HOP-92) was 88% and the activity at 10 µM (OVCAR-3) was 84.9%. For the same compound, the activity at 10 µM (MCF7) was 61.4%, the activity at 10 µM (SF-295) was 81.9% and the activity at 10 µM (MALME-3M) was 87.7%. The activity at 10 µM (SK-MEL-28) was 92%.

From PMC9116245, “New 1,2,3-triazole linked ciprofloxacin-chalcones induce DNA damage by inhibiting human topoisomerase I& II and tubulin polymerization” (Journal of Enzyme Inhibition and Medicinal Chemistry, 2022)
